Source: US20250170120A1, “ALLOSTERIC STING MODULATORS AND METHODS OF USE” (THE BOARD OF REGENTS OF THE UNIVERSITY OF TEXAS SYSTEM, priority 2022, published 2025)

Legend:
[1] = target: T1, STING (Homo sapiens, UniProt Q86WV6, G230A/H232R/R293Q/R71H); experiment: cGAMP dose-response IFN induction in the presence of increasing compound concentrations; assay type: cell-based; details: for cGAMP induced IFN induction in the presence of increasing concentrations of compound: FIGS. 16A-16D
T1 construct: host or cells: THP-1 / THP1-Dual / THP1-Lucia ISG cells
T1 sequence (Q86WV6 whole entry R71H/G230A/H232R/R293Q): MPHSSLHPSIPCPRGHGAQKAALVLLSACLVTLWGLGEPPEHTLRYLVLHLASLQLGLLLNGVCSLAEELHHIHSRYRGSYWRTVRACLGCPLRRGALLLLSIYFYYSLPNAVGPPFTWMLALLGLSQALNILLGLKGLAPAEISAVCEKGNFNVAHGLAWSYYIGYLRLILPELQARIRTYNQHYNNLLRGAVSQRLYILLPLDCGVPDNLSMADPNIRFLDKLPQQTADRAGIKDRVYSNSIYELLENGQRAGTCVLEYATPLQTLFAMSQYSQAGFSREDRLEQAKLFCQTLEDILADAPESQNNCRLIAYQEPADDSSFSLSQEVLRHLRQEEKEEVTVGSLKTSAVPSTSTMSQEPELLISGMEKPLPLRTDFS
Experimental: Compounds UT009, UT019, UT073 and UT122 were tested for their ability to interfere with cGAMP induced STING signaling. FIGS. 16A-16D show dose response plots of cGAMP induced IFN induction in the presence of increasing concentrations of each compound.
(§1) Compounds UT017, UT018, UT019 and UT0122 were tested for their ability to interfere with STING signaling. Interferon production in the presence of increasing concentrations of UT017, UT018, UT019 or UT0122 were measured in THP-1 cell lines under basal conditions. […] Compound UT0122 was further tested in THP1-Lucia™ ISG cells for interferon production at varying concentration, in the presence of an increasing dose of a STING agonist cGAMP.

[2] = target: T1, STING; experiment: Interferon production in THP-1 cells under basal conditions (no external stimulation); assay type: cell-based; details: for Comparative antagonistic effect among UT017, UT018, UT019, UT0122 / Relative induction of interferon production under basal conditions: THP-1 cell lines, basal conditions; for Relative induction of interferon production under basal conditions: increasing concentrations
Source text: (§2) Methods of measuring STING activity and by extension, the activity of the compounds discussed herein, are known in the art. As an example, the STING pathway activity may be evaluated using reporter cell lines where a reporter gene (i.e., luciferase, GFP) is expressed under direct or indirect control of interferon response elements. For example, in an exemplary embodiment, the STING pathway can be measured using THP1-Dual™ cells (InvivoGen) which express the Lucia gene (a secreted luciferase reporter gene) under the control of an ISG54 minimal promoter in conjunction with five IFN-stimulated response elements. The STING pathway, when activated, stimulates interferon release which, in this model, will increase luciferase expression in a detectable manner. When inhibited, interferon release will be decreased, reducing luciferase expression in a detectable manner. The compounds can optionally be tested in the presence of external stimulation (i.e., using cGAMP, a natural agonist of STING, or MSA-2).
as §1
The STING pathway activity was evaluated in THP1-Dual™ cells (Invivogen). 1.5×10^5 THP1-Dual™ cells were seeded in 96-well plates and treated with the test compound followed by cGAMP (100 uM) or MSA-2 (10 uM, Science 2020, 369, eaba6098) 2 hours later. After incubating at 37° C. for 16 hours, the luciferase activity was measured by QUANTI-Luc™ (Invivogen).

[3] = target: human STING (Homo sapiens, UniProt Q86WV6); details: cited from earlier work
human STING (Homo sapiens, UniProt Q86WV6), sequence (Q86WV6 whole entry H232R): as the sequence (Q86WV6 whole entry R71H/G230A/H232R/R293Q) above, with H71R, A230G, Q293R counted along it

[4] = target: T1, STING; experiment: STING pathway activity in THP1-Dual/THP-1 cells upon cGAMP or MSA-2 stimulation (luciferase/interferon readout); assay type: cell-based; details: THP-1 cells; for inhibition at 10 µM: 10 μM compound, cGAMP (100 μM) or MSA-2 (10 μM) stimulation; for Induction of interferon production in the presence of MSA2: 10 μM MSA2; for Induction of interferon production in the presence of MSA2 / Interferon production in the presence of cGAMP: increasing concentrations of compound; for Interferon production in the presence of cGAMP: 100 μM cGAMP
Source text: as §2
The STING pathway activity was evaluated in THP1-Dual™ cells (Invivogen). […] After incubating at 37° C. for 16 hours, the luciferase activity was measured by QUANTI-Luc™ (Invivogen).

[5] = target: T2, human STING (Homo sapiens, UniProt Q86WV6, H232R); experiment: Cryo-EM structure of human STING in complex with compound; assay type: binding
T2 construct: human STING residues 1-343, excluding the C-terminal tail; T6SS immunity protein 3 (Tsi3) from Pseudomonas aeruginosa (C, cleaved yes); human rhinovirus 3C protease cleavage site (C); made in house; host or cells: HEK293F cells (pEZT-BM vector)
T2 sequence (Q86WV6 1-343 H232R): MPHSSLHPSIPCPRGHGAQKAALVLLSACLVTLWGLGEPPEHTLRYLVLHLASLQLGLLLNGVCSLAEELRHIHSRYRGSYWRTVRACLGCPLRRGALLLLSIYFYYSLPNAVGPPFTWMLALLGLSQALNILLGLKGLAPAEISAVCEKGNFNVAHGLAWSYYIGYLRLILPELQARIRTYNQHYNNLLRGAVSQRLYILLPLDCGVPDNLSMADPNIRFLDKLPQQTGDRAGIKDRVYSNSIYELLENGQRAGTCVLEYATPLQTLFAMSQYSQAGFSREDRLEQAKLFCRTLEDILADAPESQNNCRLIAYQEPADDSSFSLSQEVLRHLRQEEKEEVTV
Experimental: Cryo-EM data collection and image processing. Purified wild type human STING at 50 μM were incubated with cGAMP at 100 μM and C53 at 100 μM for formation of the protein/ligands complex. The complex was purified using a Superose 6 10/300 gel filtration column (GE healthcare) in buffer C. Peak fractions were collected and concentrated to 2.9 mg/ml. Additional cGAMP (100 μM) and C53 (100 μM) were added to ensure saturation of the protein by the ligands. The sample was applied to a glow-discharged Quantifoil R1.2/1.3 300-mesh gold holey carbon grid (Quantifoil, Micro Tools GmbH, Germany), blotted under 100% humidity at 4° C. and plunged into liquid ethane using a Mark IV Vitrobot (FEI).
Micrographs were collected on a Titan Krios microscope (FEI) with a K3 Summit direct electron detector (Gatan) in the super-resolution counting mode operated at 300 kV. The slit width of the GIF-Quantum energy filter was set to 20 eV. The nominal magnification was 81,000× and the pixel size of 1.08 Å. Micrographs were dose-fractioned into 36 frames with a total exposure time of 7.2 s at the dose rate of 1.6 e^−/Å^2/frame in the correlated double sampling (CDS) mode. Movie frames were motion-corrected and dose-weighted using the Motioncorr2 program (version 1.2). GCTF 1.06 was used for CTF correction. […] Local resolution was calculated in RELION (FIG. 6B). […]

SMILES | cGAMP induced IFN induction in the presence of increasing concentrations of compound [1] | inhibition at 32 µM ([2]; 32 μM compound, no external stimulation, THP-1 cells) [%] | Comparative antagonistic effect among UT017, UT018, UT019, UT0122 [2] | Relative induction of interferon production under basal conditions [2] | Activation of human STING [3] | Induction of interferon by cGAMP ([1]; THP1-Lucia ISG cells, varying compound concentration, increasing dose of cGAMP) | inhibition at 10 µM [4] [%] | Induction of interferon production in the presence of MSA2 [4] | Interferon production in the presence of cGAMP [4] | Binding site in human STING (cryo-EM) [5]
CC1(C)C(=O)N(Cc2c(F)cccc2Cl)c2cc(CNS(=O)(=O)c3c(F)cc(F)cc3F)ccc21 [UT019, N-((1-(2-chloro-6-fluorobenzyl)-3,3-dimethyl-2-oxoindolin-6-yl)methyl)-2,4,6-trifluorobenzenesulfonamide] | dose-dependent suppression of interferon production | > 50 | highest antagonistic effect | suppressed at the highest concentration tested | – | – | – | – | – | –
Cc1ccc2c(=O)c3cccc(CC(=O)O)c3oc2c1C [DMXAA, 5,6-dimethylxanthenone-4-acetic acid] | – | – | – | – | does not activate human STING | – | – | – | – | –
Cc1nn(C)c(CN2C(=O)C(C)(C)c3ccc(C(=O)NCc4cc5ccccc5[nH]4)cc32)c1Br [UT122, N-((1H-indol-2-yl)methyl)-1-((4-bromo-1,3-dimethyl-1H-pyrazol-5-yl)methyl)-3,3-dimethyl-2-oxoindoline-6-carboxamide] | dose-dependent suppression of interferon production | – | highest antagonistic effect | suppressed at the highest concentration tested | – | suppressed in a dose-dependent manner | > 50 | antagonistic activity with an inhibition of interferon production in a dose dependent manner | antagonistic activity with an inhibition of interferon production in a dose dependent manner | –
CC1(C)C(=O)N(Cc2c(F)cccc2C(F)(F)F)c2cc(C(=O)NCc3c(F)cc(F)cc3F)ccc21 [UT009, 1-(2-fluoro-6-(trifluoromethyl)benzyl)-3,3-dimethyl-2-oxo-N-(2,4,6-trifluorobenzyl)indoline-6-carboxamide] | dose-dependent suppression of interferon production | – | – | – | – | – | > 50 | inhibited the induction of interferon production in a dose dependent manner | reduction in interferon production with increasing concentration | bind at the same binding pocket as C53
